Experiments:
Macrophage cell line [1] = assay: Effect on lipid mediator formation in human M2-like phenotype MDM cells by measuring RvD5 formation at 10 uM pre-incubated for 15 mins followed by SACM stimulation and measured after 90 mins by UPLC-MS/MS analysis (reference value: 344 +/- 92 pg/ml); type: functional; settings: time 105 min, 1.75 h
Macrophage cell line [2] = assay: Effect on lipid mediator formation in human M1-like phenotype MDM cells by measuring 17-HDHA formation at 10 uM pre-incubated for 15 mins followed by SACM stimulation and measured after 90 mins by UPLC-MS/MS analysis (reference value: 360 +/- 89 pg/ml); type: functional; settings: time 105 min, 1.75 h
Macrophage cell line [3] = assay: Effect on lipid mediator formation in human M1-like phenotype MDM cells by measuring EPA formation at 10 uM pre-incubated for 15 mins followed by SACM stimulation and measured after 90 mins by UPLC-MS/MS analysis (reference value: 20261 +/- 1404 pg/ml); type: functional; settings: time 105 min, 1.75 h
Macrophage cell line [4] = assay: Effect on lipid mediator formation in human M1-like phenotype MDM cells by measuring 5S,6R-diHETE formation at 10 uM pre-incubated for 15 mins followed by SACM stimulation and measured after 90 mins by UPLC-MS/MS analysis relative to control; type: functional; settings: time 105 min, 1.75 h
Macrophage cell line [5] = assay: Effect on lipid mediator formation in human M1-like phenotype MDM cells by measuring PGD2 formation at 10 uM pre-incubated for 15 mins followed by SACM stimulation and measured after 90 mins by UPLC-MS/MS analysis (reference value: 46 +/- 15 pg/ml); type: functional; settings: time 105 min, 1.75 h
[6] = molecular target: T1, Prostaglandin E synthase (Homo sapiens) (UniProt O14684); assay: Inhibition of human mPGES-1 assessed as enzyme remaining activity at 10 uM relative to control
T1 sequence (whole entry): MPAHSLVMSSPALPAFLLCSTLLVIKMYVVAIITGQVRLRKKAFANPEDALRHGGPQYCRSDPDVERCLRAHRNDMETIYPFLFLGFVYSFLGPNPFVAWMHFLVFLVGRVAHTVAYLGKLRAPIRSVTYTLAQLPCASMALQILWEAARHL

Macrophage cell line [7] = assay: Effect on lipid mediator formation in human M1-like phenotype MDM cells by measuring 4-HDHA formation at 10 uM pre-incubated for 15 mins followed by SACM stimulation and measured after 90 mins by UPLC-MS/MS analysis relative to control; type: functional; settings: time 105 min, 1.75 h
Macrophage cell line [8] = assay: Effect on lipid mediator formation in human M1-like phenotype MDM cells by measuring 5-HEPE formation at 10 uM pre-incubated for 15 mins followed by SACM stimulation and measured after 90 mins by UPLC-MS/MS analysis relative to control; type: functional; settings: time 105 min, 1.75 h
Macrophage cell line [9] = assay: Effect on lipid mediator formation in human M1-like phenotype MDM cells by measuring 7-HDHA formation at 10 uM pre-incubated for 15 mins followed by SACM stimulation and measured after 90 mins by UPLC-MS/MS analysis relative to control; type: functional; settings: time 105 min, 1.75 h
Macrophage cell line [10] = assay: Effect on lipid mediator formation in human M1-like phenotype MDM cells by measuring t-LTB4 formation at 10 uM pre-incubated for 15 mins followed by SACM stimulation and measured after 90 mins by UPLC-MS/MS analysis relative to control; type: functional; settings: time 105 min, 1.75 h
Macrophage cell line [11] = assay: Effect on lipid mediator formation in human M2-like phenotype MDM cells by measuring MaR2 formation at 10 uM pre-incubated for 15 mins followed by SACM stimulation and measured after 90 mins by UPLC-MS/MS analysis relative to control; type: functional; settings: time 105 min, 1.75 h
Macrophage cell line [12] = assay: Effect on lipid mediator formation in human M2-like phenotype MDM cells by measuring 5-HEPE formation at 10 uM pre-incubated for 15 mins followed by SACM stimulation and measured after 90 mins by UPLC-MS/MS analysis relative to control; type: functional; settings: time 105 min, 1.75 h
Macrophage cell line [13] = assay: Effect on lipid mediator formation in human M2-like phenotype MDM cells by measuring RvD2 formation at 10 uM pre-incubated for 15 mins followed by SACM stimulation and measured after 90 mins by UPLC-MS/MS analysis relative to control; type: functional; settings: time 105 min, 1.75 h
Macrophage cell line [14] = assay: Effect on lipid mediator formation in human M2-like phenotype MDM cells by measuring 12-HETE formation at 10 uM pre-incubated for 15 mins followed by SACM stimulation and measured after 90 mins by UPLC-MS/MS analysis relative to control; type: functional; settings: time 105 min, 1.75 h
Macrophage cell line [15] = assay: Effect on lipid mediator formation in human M2-like phenotype MDM cells by measuring DHA formation at 10 uM pre-incubated for 15 mins followed by SACM stimulation and measured after 90 mins by UPLC-MS/MS analysis relative to control; type: functional; settings: time 105 min, 1.75 h
Macrophage cell line [16] = assay: Effect on lipid mediator formation in human M2-like phenotype MDM cells by measuring PGF2alpha formation at 10 uM pre-incubated for 15 mins followed by SACM stimulation and measured after 90 mins by UPLC-MS/MS analysis (reference value: 72 +/- 21 pg/ml); type: functional; settings: time 105 min, 1.75 h
Macrophage cell line [17] = assay: Effect on lipid mediator formation in human M1-like phenotype MDM cells by measuring DHA formation at 10 uM pre-incubated for 15 mins followed by SACM stimulation and measured after 90 mins by UPLC-MS/MS analysis relative to control; type: functional; settings: time 105 min, 1.75 h
Macrophage cell line [18] = assay: Effect on lipid mediator formation in human M1-like phenotype MDM cells by measuring TXB2 formation at 10 uM pre-incubated for 15 mins followed by SACM stimulation and measured after 90 mins by UPLC-MS/MS analysis (reference value: 8866 +/- 2561 pg/ml); type: functional; settings: time 105 min, 1.75 h
Macrophage cell line [19] = assay: Effect on lipid mediator formation in human M2-like phenotype MDM cells by measuring 15-HEPE formation at 10 uM pre-incubated for 15 mins followed by SACM stimulation and measured after 90 mins by UPLC-MS/MS analysis (reference value: 1385 +/- 343 pg/ml); type: functional; settings: time 105 min, 1.75 h
Macrophage cell line [20] = assay: Effect on lipid mediator formation in human M2-like phenotype MDM cells by measuring PGE2 formation at 10 uM pre-incubated for 15 mins followed by SACM stimulation and measured after 90 mins by UPLC-MS/MS analysis relative to control; type: functional; settings: time 105 min, 1.75 h
Macrophage cell line [21] = assay: Effect on lipid mediator formation in human M2-like phenotype MDM cells by measuring PGD2 formation at 10 uM pre-incubated for 15 mins followed by SACM stimulation and measured after 90 mins by UPLC-MS/MS analysis relative to control; type: functional; settings: time 105 min, 1.75 h
Macrophage cell line [22] = assay: Effect on lipid mediator formation in human M1-like phenotype MDM cells by measuring 5-HETE formation at 10 uM pre-incubated for 15 mins followed by SACM stimulation and measured after 90 mins by UPLC-MS/MS analysis (reference value: 5357 +/- 1561 pg/ml); type: functional; settings: time 105 min, 1.75 h
Macrophage cell line [23] = assay: Effect on lipid mediator formation in human M1-like phenotype MDM cells by measuring PGF2alpha formation at 10 uM pre-incubated for 15 mins followed by SACM stimulation and measured after 90 mins by UPLC-MS/MS analysis (reference value: 471 +/- 100 pg/ml); type: functional; settings: time 105 min, 1.75 h

Compound: COc1ccc(C2=C/C(=C/c3ccc(O)cc3O)C(=O)O2)cc1
- Activity (Macrophage cell line [1]): 575 pg/mL
- Activity (Macrophage cell line [2]): 380 pg/mL
- Activity (Macrophage cell line [3]): 27649 pg/mL
- Activity (Macrophage cell line [4]): 5%
- Activity (Macrophage cell line [5]): 72 pg/mL
- Activity [6]: 89.3%
- Activity (Macrophage cell line [7]): 80%
- Activity (Macrophage cell line [8]): 11%
- Activity (Macrophage cell line [9]): 31%
- Activity (Macrophage cell line [10]): 8%
- Activity (Macrophage cell line [11]): 219%
- Activity (Macrophage cell line [12]): 18%
- Activity (Macrophage cell line [13]): 112%
- Activity (Macrophage cell line [14]): 114%
- Activity (Macrophage cell line [15]): 106%
- Activity (Macrophage cell line [16]): 89 pg/mL
- Activity (Macrophage cell line [17]): 108%
- Activity (Macrophage cell line [18]): 8338 pg/mL
- Activity (Macrophage cell line [19]): 2169 pg/mL
- Activity (Macrophage cell line [20]): 259%
- Activity (Macrophage cell line [21]): 201%
- Activity (Macrophage cell line [22]): 361 pg/mL
- Activity (Macrophage cell line [23]): 419 pg/mL

Compound: Oc1ccc(CCC2CCC(c3ccc(O)cc3)CO2)cc1 (stereo unspecified)
- Activity (Macrophage cell line [1]): 361 pg/mL
- Activity (Macrophage cell line [2]): 485 pg/mL
- Activity (Macrophage cell line [3]): 22962 pg/mL
- Activity (Macrophage cell line [4]): 5%
- Activity (Macrophage cell line [5]): 40 pg/mL
- Activity [6]: 80.3%
- Activity (Macrophage cell line [7]): 75%
- Activity (Macrophage cell line [8]): 18%
- Activity (Macrophage cell line [9]): 38%
- Activity (Macrophage cell line [10]): 8%
- Activity (Macrophage cell line [11]): 191%
- Activity (Macrophage cell line [12]): 34%
- Activity (Macrophage cell line [13]): 96%
- Activity (Macrophage cell line [14]): 122%
- Activity (Macrophage cell line [15]): 107%
- Activity (Macrophage cell line [16]): 58 pg/mL
- Activity (Macrophage cell line [17]): 94%
- Activity (Macrophage cell line [18]): 8319 pg/mL
- Activity (Macrophage cell line [19]): 1937 pg/mL
- Activity (Macrophage cell line [20]): 147%
- Activity (Macrophage cell line [21]): 131%
- Activity (Macrophage cell line [22]): 695 pg/mL
- Activity (Macrophage cell line [23]): 331 pg/mL
